Each block holds one compound with its values, some of them ahead of it. Calls of active or inactive are those of the source.
How the values were obtained:
[1] = molecular target: T1, COUP transcription factor 2 (Homo sapiens, UniProt P24468); assay: Luminescence-based cell-based high throughput dose response assay to identify inhibitors of COUP-TFII (NR2F2).; format: functional;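 further: HEK293 cells transiently cotransfected with COUP-TFII expression vector and reporter; luciferase reporter luminescence driven by COUP-TFII from the pX2-168 reporter plasmid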
T1 sequence (P24468 whole entry): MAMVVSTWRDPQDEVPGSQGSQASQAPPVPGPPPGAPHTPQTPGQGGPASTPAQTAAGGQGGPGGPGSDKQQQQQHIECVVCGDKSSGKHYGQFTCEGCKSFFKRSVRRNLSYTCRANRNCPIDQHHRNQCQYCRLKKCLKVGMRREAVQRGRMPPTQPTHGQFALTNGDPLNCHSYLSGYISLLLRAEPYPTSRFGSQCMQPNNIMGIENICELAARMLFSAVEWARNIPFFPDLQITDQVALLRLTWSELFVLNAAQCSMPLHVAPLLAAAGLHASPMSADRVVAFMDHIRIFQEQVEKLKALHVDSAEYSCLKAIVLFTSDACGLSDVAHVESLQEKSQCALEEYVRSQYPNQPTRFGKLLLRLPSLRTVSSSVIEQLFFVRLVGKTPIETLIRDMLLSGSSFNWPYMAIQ

INS1 = assay: beta cell apoptosis inhibitors, cytokine rescue, dose response, luminescence, retest (AID 449756); format: functional, cell-based; settings: Rattus norvegicus;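 further: cell death triggered by IL-1 beta plus TNF-alpha plus IFN-gamma mixture; protective hits raise ATP signal compared with cytokine alone wells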
[2] = insulin promoter down-regulators in MIN6 cells, imaging, high-content screening, mouse beta cells (AID 1628); format: functional
[3] = Shn3 3'UTR reporter inhibitors, dose response, cell-based, Clone20 osteoblasts, firefly luciferase, cherry-picked (AID 624132); format: functional;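 further: firefly luciferase luminescence from reporter carrying the Shn3 3'UTR in osteoblasts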
[4] = cytotoxicity in MIN6 insulinoma cells, dose response, cytotoxicity control, cell-based, mouse insulinoma (AID 2122); format: functional;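 further: confirmatory high-throughput counterscreen run to flag cytotoxic compounds; mouse MIN-6 beta cells carrying an insulin promoter eGFP reporter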
[5] = cytotoxicity in HEK-293T cells, dose response, cytotoxicity control for TCR NF-kB inhibitor project, luminescence, T-cell screen hits (AID 489026); format: functional, cell-based;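 further: cells exposed to compound about 14 hours before the viability readout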
[6] = HepG2 cell cytotoxicity, dose response, cytotoxicity control for Shn3 inhibitor project, CellTiter-Glo, cherry-picked (AID 624134); format: functional, cell-based
[7] = control 3'UTR Renilla luciferase suppression, dose response, counter-screen for Shn3 inhibitor project, cell-based, Clone20-Shn3RL, cherry-picked (AID 624133); format: functional
Trypsin = Trypsin (Sus scrofa, UniProt P00761); assay: porcine trypsin inhibitors, dose response, selectivity assay for Rce1 protease inhibitor project, biochemical, quenched peptide fluorescence, cherry-pick (AID 488789)
Chain of Trypsin (P00761 whole entry): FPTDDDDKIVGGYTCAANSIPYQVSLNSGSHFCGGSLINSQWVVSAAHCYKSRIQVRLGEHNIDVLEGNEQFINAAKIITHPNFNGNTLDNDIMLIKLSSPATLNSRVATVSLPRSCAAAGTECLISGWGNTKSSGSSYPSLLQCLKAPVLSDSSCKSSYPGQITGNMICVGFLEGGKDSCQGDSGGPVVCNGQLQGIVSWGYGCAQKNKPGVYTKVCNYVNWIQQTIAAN

CAAX prenyl protease 2 [8] = molecular target: T2, CAAX prenyl protease 2 (Saccharomyces cerevisiae S288c, UniProt Q03530); format: biochemical
T2 sequence (Q03530 whole entry): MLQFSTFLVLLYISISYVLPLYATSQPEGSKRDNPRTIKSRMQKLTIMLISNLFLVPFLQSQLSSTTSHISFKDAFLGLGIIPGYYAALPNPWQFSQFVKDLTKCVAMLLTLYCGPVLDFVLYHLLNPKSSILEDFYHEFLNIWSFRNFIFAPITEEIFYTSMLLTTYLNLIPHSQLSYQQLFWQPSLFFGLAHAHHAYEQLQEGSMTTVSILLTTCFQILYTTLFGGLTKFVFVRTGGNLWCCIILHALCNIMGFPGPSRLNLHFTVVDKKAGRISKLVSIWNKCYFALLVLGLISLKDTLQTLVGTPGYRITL

CAAX prenyl protease 2 [9] = molecular target: CAAX prenyl protease 2 (Homo sapiens, UniProt Q9Y256); assay: human Rce1 protease inhibitors, dose response, biochemical, yeast membranes, quenched-peptide fluorescence, cherry-pick (AID 588849)
Chain of CAAX prenyl protease 2 (Homo sapiens, UniProt Q9Y256) (Q9Y256 whole entry): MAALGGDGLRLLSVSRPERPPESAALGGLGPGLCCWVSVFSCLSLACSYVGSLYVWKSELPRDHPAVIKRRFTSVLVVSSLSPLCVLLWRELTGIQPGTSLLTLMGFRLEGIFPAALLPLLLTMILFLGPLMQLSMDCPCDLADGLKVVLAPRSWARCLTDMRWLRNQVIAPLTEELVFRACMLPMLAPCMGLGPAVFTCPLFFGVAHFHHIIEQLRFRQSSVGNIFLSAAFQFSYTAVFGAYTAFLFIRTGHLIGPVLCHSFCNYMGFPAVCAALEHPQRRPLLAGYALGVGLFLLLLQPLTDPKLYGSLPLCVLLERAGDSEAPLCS

HEK293 [10] = assay: cells; format: functional, cell-based; settings: Homo sapiens
HEK293 [11] = assay: NOD1 signaling inhibitors, primary screen, cell-based, luminescence, uHTS (AID 1578); format: functional; settings: Homo sapiens
[12] = molecular target: Nucleotide-binding oligomerization domain-containing protein 1 (Homo sapiens, UniProt Q9Y239); assay: NOD1 signaling inhibitors, SAR follow-up, revised (AID 2333); format: functional
Chain of Nucleotide-binding oligomerization domain-containing protein 1 (Q9Y239 whole entry, the tested form may be a part): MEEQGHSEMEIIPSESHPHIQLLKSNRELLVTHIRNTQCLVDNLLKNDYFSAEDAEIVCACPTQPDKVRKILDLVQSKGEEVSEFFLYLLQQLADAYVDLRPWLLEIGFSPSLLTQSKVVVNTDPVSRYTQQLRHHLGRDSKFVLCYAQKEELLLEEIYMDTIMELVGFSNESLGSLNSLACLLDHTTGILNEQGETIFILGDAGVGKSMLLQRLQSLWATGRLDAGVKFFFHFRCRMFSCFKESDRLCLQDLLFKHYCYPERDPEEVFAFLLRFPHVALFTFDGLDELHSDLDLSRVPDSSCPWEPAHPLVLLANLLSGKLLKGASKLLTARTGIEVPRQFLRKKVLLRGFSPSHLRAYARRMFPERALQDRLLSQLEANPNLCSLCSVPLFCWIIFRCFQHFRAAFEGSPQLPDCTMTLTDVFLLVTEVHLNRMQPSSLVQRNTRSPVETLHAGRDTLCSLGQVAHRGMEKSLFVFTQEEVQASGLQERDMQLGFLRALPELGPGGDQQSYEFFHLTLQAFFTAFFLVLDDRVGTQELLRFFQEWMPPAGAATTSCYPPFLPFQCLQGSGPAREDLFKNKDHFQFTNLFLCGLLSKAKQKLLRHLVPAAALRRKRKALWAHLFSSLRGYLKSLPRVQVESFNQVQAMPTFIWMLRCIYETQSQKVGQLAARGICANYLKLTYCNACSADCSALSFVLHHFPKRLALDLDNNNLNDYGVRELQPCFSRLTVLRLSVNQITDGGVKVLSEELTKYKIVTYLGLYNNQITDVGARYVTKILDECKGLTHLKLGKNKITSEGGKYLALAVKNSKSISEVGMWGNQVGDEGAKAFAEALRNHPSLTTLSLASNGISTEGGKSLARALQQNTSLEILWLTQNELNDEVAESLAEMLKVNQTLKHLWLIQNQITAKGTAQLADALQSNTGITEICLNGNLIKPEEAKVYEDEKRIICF

HEK293 [13] = assay: cells; format: functional, cell-based; settings: Homo sapiens; remark: listed apart in the source
HEK293 [14] = assay: NOD2 signaling inhibitors in MDP-stimulated cells, cell-based, uHTS, luminescence (AID 2001); format: functional; settings: Homo sapiens
[15] = molecular target: Nucleotide-binding oligomerization domain-containing protein 2 (Homo sapiens, UniProt Q9HC29); assay: NOD2 signaling inhibitors, cell-based, luminescence, uHTS, HEK293 (AID 1566); format: functional
Chain of Nucleotide-binding oligomerization domain-containing protein 2 (Q9HC29 whole entry, the tested form may be a part): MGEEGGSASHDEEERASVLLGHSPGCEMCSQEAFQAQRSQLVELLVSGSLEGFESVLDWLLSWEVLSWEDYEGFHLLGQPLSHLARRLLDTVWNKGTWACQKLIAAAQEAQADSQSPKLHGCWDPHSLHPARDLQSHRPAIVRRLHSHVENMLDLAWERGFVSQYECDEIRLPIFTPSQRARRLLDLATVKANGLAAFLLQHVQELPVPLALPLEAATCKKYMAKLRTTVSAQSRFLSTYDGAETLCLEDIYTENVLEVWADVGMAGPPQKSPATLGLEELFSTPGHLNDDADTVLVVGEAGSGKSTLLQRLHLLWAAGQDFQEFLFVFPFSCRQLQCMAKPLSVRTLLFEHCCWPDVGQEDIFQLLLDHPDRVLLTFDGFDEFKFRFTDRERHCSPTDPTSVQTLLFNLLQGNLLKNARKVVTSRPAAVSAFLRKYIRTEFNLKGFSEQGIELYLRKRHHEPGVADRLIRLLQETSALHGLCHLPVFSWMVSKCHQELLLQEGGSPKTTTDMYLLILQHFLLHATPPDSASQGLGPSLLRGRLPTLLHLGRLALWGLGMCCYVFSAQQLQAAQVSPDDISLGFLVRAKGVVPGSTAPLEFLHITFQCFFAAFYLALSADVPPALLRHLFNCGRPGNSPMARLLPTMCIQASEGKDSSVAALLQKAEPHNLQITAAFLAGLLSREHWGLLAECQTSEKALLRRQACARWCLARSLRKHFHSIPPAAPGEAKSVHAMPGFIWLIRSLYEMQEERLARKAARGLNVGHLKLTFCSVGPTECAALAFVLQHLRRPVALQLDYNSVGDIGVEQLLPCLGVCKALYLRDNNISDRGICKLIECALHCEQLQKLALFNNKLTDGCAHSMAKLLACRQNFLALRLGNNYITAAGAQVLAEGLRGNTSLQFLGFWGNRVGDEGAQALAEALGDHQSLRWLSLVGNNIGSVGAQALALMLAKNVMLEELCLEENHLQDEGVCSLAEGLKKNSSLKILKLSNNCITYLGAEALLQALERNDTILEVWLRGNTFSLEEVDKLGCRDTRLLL

Tumor necrosis factor = Tumor necrosis factor (Homo sapiens, UniProt P01375); assay: TNFa-triggered NF-kB activation inhibitors, SAR follow-up, cell-based, revised (AID 2337); format: functional
Chain of Tumor necrosis factor (P01375 whole entry): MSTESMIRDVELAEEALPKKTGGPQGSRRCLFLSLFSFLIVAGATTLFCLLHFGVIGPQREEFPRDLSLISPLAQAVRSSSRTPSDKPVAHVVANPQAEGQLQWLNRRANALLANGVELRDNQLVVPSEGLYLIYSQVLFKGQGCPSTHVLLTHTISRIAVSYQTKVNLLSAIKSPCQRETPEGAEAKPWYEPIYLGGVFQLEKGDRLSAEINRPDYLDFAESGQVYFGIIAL

HEK293 [16] = assay: cells; settings: Homo sapiens
HEK293 [17] = assay: cells; format: functional, cell-based; settings: Homo sapiens; remark: listed apart in the source
[18] = molecular target: T3, Tyrosine-protein phosphatase non-receptor type 22 (Homo sapiens, UniProt Q9Y2R2); format: functional
T3 sequence (Q9Y2R2 whole entry): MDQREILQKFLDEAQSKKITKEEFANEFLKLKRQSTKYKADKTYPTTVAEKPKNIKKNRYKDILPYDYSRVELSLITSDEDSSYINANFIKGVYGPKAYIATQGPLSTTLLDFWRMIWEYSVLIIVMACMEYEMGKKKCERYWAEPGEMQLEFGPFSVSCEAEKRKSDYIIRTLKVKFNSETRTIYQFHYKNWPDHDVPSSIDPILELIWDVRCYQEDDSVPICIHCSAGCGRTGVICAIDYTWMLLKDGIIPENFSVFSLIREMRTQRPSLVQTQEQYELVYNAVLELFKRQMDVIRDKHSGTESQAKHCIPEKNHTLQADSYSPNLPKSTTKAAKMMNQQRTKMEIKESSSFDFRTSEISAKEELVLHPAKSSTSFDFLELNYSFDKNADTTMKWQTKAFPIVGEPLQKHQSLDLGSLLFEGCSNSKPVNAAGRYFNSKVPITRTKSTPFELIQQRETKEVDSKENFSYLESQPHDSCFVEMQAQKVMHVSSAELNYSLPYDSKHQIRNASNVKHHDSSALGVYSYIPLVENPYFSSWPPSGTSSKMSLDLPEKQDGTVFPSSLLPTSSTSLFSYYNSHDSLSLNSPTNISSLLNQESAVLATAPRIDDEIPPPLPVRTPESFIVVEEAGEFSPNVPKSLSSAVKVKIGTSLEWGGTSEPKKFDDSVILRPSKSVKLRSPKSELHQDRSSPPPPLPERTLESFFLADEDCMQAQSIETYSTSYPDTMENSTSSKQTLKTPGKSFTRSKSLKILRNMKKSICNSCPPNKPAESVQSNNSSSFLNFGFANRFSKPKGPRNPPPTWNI

[19] = molecular target: T4, Rac GTPase-activating protein 1 (Homo sapiens, UniProt Q9H0H5); assay: MgcRacGAP GTPase-activating activity inhibitors, confirmation, biochemical, ADP Hunter fluorescence, primary and confirmatory (AID 624330); format: functional
T4 sequence (Q9H0H5 whole entry): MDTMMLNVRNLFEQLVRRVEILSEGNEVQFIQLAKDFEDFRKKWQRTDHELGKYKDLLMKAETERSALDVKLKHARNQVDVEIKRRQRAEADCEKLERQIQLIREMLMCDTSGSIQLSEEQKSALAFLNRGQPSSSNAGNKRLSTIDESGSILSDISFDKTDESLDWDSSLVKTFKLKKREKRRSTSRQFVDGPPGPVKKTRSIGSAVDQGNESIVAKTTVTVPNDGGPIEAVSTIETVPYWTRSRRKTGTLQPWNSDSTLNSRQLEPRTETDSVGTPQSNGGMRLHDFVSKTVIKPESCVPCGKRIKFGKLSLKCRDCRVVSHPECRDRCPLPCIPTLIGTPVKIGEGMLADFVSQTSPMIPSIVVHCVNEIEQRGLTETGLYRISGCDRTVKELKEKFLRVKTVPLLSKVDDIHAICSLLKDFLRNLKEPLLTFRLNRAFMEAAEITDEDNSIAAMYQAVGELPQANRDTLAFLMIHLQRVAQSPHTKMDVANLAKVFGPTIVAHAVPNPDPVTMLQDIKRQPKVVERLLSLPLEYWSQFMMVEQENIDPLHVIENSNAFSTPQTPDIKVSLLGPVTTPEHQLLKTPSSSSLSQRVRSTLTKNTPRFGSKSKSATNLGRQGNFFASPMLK

[20] = molecular target: T3, Tyrosine-protein phosphatase non-receptor type 22; format: functional; remark: listed apart in the source
[21] = molecular target: T5, Tyrosine-protein phosphatase non-receptor type 7 (Homo sapiens, UniProt P35236); format: functional
T5 sequence (P35236 whole entry): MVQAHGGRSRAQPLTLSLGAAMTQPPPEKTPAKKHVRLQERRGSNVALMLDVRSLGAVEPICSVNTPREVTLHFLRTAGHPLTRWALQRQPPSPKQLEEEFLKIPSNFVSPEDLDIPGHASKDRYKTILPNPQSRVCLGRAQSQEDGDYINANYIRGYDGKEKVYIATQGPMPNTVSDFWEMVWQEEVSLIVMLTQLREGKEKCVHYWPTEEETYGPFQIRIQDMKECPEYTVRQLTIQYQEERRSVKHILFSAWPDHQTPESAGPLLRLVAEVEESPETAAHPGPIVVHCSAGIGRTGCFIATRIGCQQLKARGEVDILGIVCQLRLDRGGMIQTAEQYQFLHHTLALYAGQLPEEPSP

Structure (SMILES): CCC1CCCCN1C(=O)c1cc(COc2ccc3ncccc3c2)on1 (centres undefined)
IC50 [1]: 4.58 µM (active) | AC50 (INS1): 1.89 µM (active) | IC50 [2]: 0.444 µM (active) | AC50 [3]: 0.46 µM (active) | IC50 [4]: 0.339 µM (active) | IC50 [5]: > 80 µM (inactive) | AC50 [6]: 2.06 µM (active) | AC50 [7]: 1.15 µM (active)

AC50 (Trypsin): 14.1 µM (active) | AC50 (CAAX prenyl protease 2 [8]): 17.5 µM (active) | AC50 (CAAX prenyl protease 2 [9]): 17 µM (active)
Structure (SMILES): CCc1cc(=O)oc2c(C)c(OC(C)C(=O)NC3CC(C)(C)NC(C)(C)C3)ccc12 (centres undefined)

Structure (SMILES): Cc1cc2nc(C)n(CCCNC(=O)Nc3cccc4ccccc34)c2cc1C
IC50 [2]: 1.7 µM (active) | AC50 [3]: 3.19 µM (active) | IC50 [4]: 1.99 µM (active) | AC50 [6]: 28.5 µM (active) | AC50 [7]: 6.38 µM (active)

Structure (SMILES): Cc1onc(-c2ccccc2)c1C(=O)Nc1ncc([N+](=O)[O-])s1
IC50 (HEK293 [10]): > 20 µM (inactive) | EC50 (HEK293 [11]): 2.25 µM (active) | IC50 [12]: 4.88 µM (active) | IC50 (HEK293 [13]): > 20 µM (inactive) | IC50 (HEK293 [14]): 8.73 µM (active) | EC50 [15]: 2.62 µM (active) | IC50 (Tumor necrosis factor): 6.31 µM (active) | IC50 (HEK293 [16]): 18 µM (active) | IC50 (HEK293 [17]): 15.8 µM (active)

IC50 [18]: > 79.4 µM (inactive) | IC50 [19]: 41.1 µM (active) | IC50 [20]: > 79.4 µM (inactive) | IC50 [21]: > 79.4 µM (inactive)
Structure (SMILES): Cc1[nH]c2ccccc2c1N=Nc1c(C)n(C)n(-c2ccccc2)c1=O

From ChEMBL document CHEMBL1201862, “PubChem BioAssay data set” (2004)
